Measurements taken from patent US11059824B2, “Substituted purines as TLR7 agonists” (Primmune Therapeutics, Inc., priority 2018, dated 2021).
Values joined by “and” are separate entries in the source; they are usually repeats but may differ in a detail not shown here. Equal entries are not always repeated. Marks after values point to notes of the source that are not given here.

What was measured:
[1] = cynomolgus monkeys, from Table 23 of U.S. Pat. No. 7,575,068 B2, cited from earlier work; for % F (percent bioavailability of loxoribine administered as prodrug): oral prodrug of loxoribine
human TLR7 = human TLR7 (Homo sapiens (Human), UniProt Q9NYK1); experiment: TLR7 reporter assay (HEK293-TLR-NF-κB inducible SEAP reporter); format: cell-based; details: HEK293 cells stably expressing human TLR7 with NF-κB-driven SEAP reporter; 15-24 hours
Text: (§1) The engagement of TLRs by cognate ligands triggers downstream signaling cascades, leading to the activation of NF-κB and other transcription factors which initiate various immunomodulatory effects. The human embryonic kidney cell line, HEK293, is essentially non-responsive to TLR agonists, but ectopic expression of TLRs in these cells allows cognate agonists to activate endogenous NF-κB. Accordingly, the HEK293-TLR-NF-κB inducible reporter system is used to assay TLR agonists. HEK293 cell lines stably expressing human TLR7 or TLR8 together with an NF-κB-driven-secreted alkaline phosphatase (SEAP) reporter were invented at InvivoGen (San Diego, Calif., USA) and used to assess compounds of the present invention for TLR7 and TLR8 agonist activities. Cells were seeded at 2-5×10^4 cells/well in 96 well plates ([…]) and treated with various concentrations of compound (10 μl) for 15-24 hours. SEAP activity was determined by measuring OD at 650 nm; the media used to culture the cell lines contains the reagents required for SEAP detection. The EC50 values in Table 2 are calculated from fitting the dose response of measured SEAP activity for each compound to the following equation: Y=ymax*c^nh/(EC50^nh+c^nh)+blank where Y is the experimentally measured OD650 at concentration c of test article, blank is the observed OD650 in the absence of TLR7 agonist, ymax is the difference between the measured OD650 in the presence of either 28.5 μM resiquimod or 1.675 μM CL307 and the blank and values of EC50 and nh are determined by nonlinear least squares analysis.

[2] = test system: interferon-α production in hPBMCs; experiment: Induction of interferon-α production in hPBMCs; format: cell-based, human; details: interferon-α production from hPBMCs; for Weighted MEC: geometric mean of all individual MECs across all donors, 24 hours; for individual MEC values: per donor
Description: Treatment of hPBMCs with a TLR7 agonist typically induces substantial production of interferon-α as well as lesser amounts of a variety of other cytokines and chemokines. A typical experiment uses hPBMCs isolated from a healthy donor and placed in replicate cell culture wells; typically 1.0-7.5×10^6 cells are placed in each well. Test compound is added and the cells cultured for 24 hours at 37° C. in a humidified atmosphere containing 5% CO2 post-addition; untreated controls are included. Secreted interferon-α production is measured using an a multisubtype interferon-α ELISA kit like those from PBL Assay Sciences or specifically as IFNα2a as part of a panel of cytokines and chemokines using luminex methodologies. The minimal effective concentration (MEC) is the minimum concentration in a dose response curve where a significant increase in interferon-α production (generally at least 20 pg/ml) is observed above baseline. MEC values for each compound are determined for at least three donors. The weighted MEC for each compound is the geometric mean of all individual MECs across all donors. Concentrations tested typically consist of a two-fold dilution series starting at 100 μM. In the calculation of weighted MEC, any value >100 μM is arbitrarily set to 200 μM unless all MECs for a compound exceed 100 μM

[3] = test system: B16-F10 rodent melanoma tumor cells; experiment: Antitumor activity in rodent model (B16-F10 syngenic); format: in vivo, mice; details: IV by tail vein, 10 total doses, two weeks after randomization
Description: B16-F10 rodent melanoma tumor cells were injected into the flank of 32 mice in a syngenic model. […] Administration of the drugs was initiated on the following day. Tumor volumes were monitored for two weeks.

[4] = Oral bioavailability in cynomolgus monkeys; format: in vivo; details: vs loxoribine administered orally as itself or as prodrugs
Description: From two to four male or female cynomolgus monkeys were used for animal testing studies. The study compounds were formulated in a vehicle (e.g. 50 mM Phosphate Buffered Saline, pH 7.4) appropriate for animal oral or intravenous administration. Parent compounds 1, 5, 26 and 27 were administered at 1 mg/kg by IV administration whereas prodrugs of the corresponding compounds were administered at 2 mg/kg. After dosing, 0.5 mL blood samples were collected typically at 0.083, 0.33, 1, 2, 4, 6, 8, 12 and 24 hours post-dosing (iv administration) or 0.25, 0.5, 1, 2, 4, 6, 8, 12 and 24 hours post-dosing (oral administration). Plasma was separated from blood and analyzed for the active agonists by well-known LC-MS techniques. […] Percent bioavailability (F %) of compounds when administered orally as prodrug was calculated from the ratio of dose-normalized AUC of parent from oral prodrug administration to that of dose-normalized parent AUC from IV parent administration and reported in Table 4.

human TLR8 = human TLR8 (Homo sapiens (Human), UniProt Q9NR97); experiment: TLR8 reporter cell assay (HEK293-TLR-NF-κB inducible SEAP reporter); format: cell-based; details: incubation with resiquimod
Text: as §1, with “The EC50 values in Table 2 are calculated from fitting the dose response of measured SEAP activity for each compound to the following equation: Y=ymax*c^nh/(EC50^nh+c^nh)+blank where Y is the experimentally measured OD650 at concentration c of test article, blank is the observed OD650 in the absence of TLR7 agonist, ymax is the difference between the measured OD650 in the presence of either 28.5 μM resiquimod or 1.675 μM CL307 and the blank and values of EC50 and nh are determined by nonlinear least squares analysis.” left out

Sequence of human TLR7 (Q9NYK1 27-1049): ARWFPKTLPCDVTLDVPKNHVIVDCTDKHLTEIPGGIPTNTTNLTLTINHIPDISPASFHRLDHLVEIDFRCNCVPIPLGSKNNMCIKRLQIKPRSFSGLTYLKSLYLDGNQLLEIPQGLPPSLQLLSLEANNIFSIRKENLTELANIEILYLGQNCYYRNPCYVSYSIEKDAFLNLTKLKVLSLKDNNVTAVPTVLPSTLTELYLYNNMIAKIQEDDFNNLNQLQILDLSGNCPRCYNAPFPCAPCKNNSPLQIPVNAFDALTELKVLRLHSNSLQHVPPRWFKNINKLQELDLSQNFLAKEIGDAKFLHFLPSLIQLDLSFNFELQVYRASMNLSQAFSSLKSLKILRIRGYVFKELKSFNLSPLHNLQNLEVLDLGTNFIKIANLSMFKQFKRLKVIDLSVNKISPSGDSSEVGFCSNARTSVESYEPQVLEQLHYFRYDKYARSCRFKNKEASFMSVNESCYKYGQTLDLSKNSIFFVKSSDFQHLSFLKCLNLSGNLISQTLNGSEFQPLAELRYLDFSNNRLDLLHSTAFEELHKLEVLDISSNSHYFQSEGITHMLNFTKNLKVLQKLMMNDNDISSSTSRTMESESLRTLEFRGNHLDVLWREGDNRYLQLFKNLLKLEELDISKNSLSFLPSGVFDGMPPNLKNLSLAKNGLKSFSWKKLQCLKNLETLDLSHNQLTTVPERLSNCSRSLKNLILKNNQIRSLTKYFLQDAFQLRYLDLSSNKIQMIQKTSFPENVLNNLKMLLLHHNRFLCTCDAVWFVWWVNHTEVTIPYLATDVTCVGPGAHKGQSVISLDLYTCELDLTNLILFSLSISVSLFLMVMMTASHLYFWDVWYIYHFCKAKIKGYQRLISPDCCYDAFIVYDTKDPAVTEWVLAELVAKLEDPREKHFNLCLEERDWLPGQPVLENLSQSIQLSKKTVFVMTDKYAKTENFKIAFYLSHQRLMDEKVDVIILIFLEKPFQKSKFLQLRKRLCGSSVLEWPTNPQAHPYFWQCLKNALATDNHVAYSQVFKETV
Sequence of human TLR8 (Q9NR97 27-1041): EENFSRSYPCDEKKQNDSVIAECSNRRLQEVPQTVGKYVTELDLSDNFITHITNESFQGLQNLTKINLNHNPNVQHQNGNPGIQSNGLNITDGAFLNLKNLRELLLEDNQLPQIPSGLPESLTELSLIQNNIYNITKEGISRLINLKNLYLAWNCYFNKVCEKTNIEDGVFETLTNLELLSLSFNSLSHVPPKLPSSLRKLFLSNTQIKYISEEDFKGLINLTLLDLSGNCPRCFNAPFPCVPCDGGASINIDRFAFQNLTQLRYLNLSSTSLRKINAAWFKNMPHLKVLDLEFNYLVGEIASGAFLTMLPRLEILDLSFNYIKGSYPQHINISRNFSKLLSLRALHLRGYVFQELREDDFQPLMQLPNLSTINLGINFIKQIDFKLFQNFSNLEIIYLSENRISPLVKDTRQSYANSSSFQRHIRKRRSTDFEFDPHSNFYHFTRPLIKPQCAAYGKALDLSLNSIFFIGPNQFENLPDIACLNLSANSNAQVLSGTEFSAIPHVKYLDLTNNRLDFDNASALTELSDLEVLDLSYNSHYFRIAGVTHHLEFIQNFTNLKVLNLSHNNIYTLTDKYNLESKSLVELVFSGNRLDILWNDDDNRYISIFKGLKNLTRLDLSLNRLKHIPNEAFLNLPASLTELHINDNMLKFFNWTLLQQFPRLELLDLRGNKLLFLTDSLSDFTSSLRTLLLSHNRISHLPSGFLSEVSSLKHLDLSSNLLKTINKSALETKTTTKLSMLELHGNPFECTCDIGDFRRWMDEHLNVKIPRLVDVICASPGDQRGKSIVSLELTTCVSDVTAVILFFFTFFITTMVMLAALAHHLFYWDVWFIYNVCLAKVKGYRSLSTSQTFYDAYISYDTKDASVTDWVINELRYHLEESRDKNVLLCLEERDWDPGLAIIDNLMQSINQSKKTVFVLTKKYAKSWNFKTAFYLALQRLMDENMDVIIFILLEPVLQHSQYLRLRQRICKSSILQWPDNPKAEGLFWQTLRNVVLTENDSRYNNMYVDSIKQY

Row | Structure (SMILES) | EC50 (human TLR7) [µM] | Weighted MEC [2] | also measured
1 | C=CCn1c(=O)n([C@@H]2O[C@H](CO)[C@@H](O)[C@H]2O)c2nc(N)nc(OCC)c21 [7-allyl-2-amino-6-ethoxy-9-β-D-ribofuranosyl-7,9-dihydropurin-8-one] | – | – | % F (percent bioavailability of loxoribine administered as prodrug) [1]: 9%
2 | C#CCn1c(=O)n([C@@H]2O[C@H](CO)[C@H](O)[C@H]2O)c2nc(N)[nH]c(=O)c21 [Compound 5, 2-Amino-9-((2R,3R,4R,5R)-3,4-dihydroxy-5-(hydroxymethyl)tetrahydrofuran-2-yl)-7-(prop-2-yn-1-yl)-7,9-dihydro-1H-purine-6,8-dione] | 292 | less than or equal to 40 μM and 34 μM | individual MEC values [2]: < 100 µM; Mean tumor growth inhibition (% TGI) versus the control group ([3]; group (ii): 40 mg/kg, BID for five consecutive days): 40%; Mean tumor growth inhibition (% TGI) versus the control group ([3]; group (iii): 40 mg/kg, BID every other day): 64%
3 | C#CCn1c(=O)n([C@@H]2O[C@H](CO)[C@@H](F)[C@H]2O)c2nc(N)[nH]c(=O)c21 [Compound 27, 2-Amino-9-((2R,3S,4S,5R)-4-fluoro-3-hydroxy-5-(hydroxymethyl)tetrahydrofuran-2-yl)-7-(prop-2-yn-1-yl)-7,9-dihydro-1H-purine-6,8-dione] | 376 | less than or equal to 40 μM and 23 μM | individual MEC values [2]: < 100 µM; Systemic delivery by prodrugs compared with loxoribine [4]: substantially greater than loxoribine
4 | CCOCc1nc2c(N)nc3ccccc3c2n1CC(C)(C)O [resiquimod] | – | – | induction of SEAP production in the TLR8 reporter cell assay (human TLR8): Substantial induction of SEAP production
5 | C=CCn1c(=O)n([C@@H]2O[C@H](CO)[C@@H](O)[C@H]2O)c2nc(N)ncc21 [7-allyl-2-amino-9-β-D-ribofuranosyl-7,9-dihydropurin-8-one] | – | – | % F (percent bioavailability of loxoribine administered as prodrug) [1]: 13%
6 | C#CCn1c(=O)n([C@@H]2O[C@H](CO)C[C@H]2O)c2nc(N)[nH]c(=O)c21 [Compound 26, 2-Amino-9-((2R,3R,5S)-3-hydroxy-5-(hydroxymethyl)tetrahydrofuran-2-yl)-7-(prop-2-yn-1-yl)-7,9-dihydro-1H-purine-6,8-dione] | 519 | less than or equal to 40 μM and 31 μM | individual MEC values [2]: < 100 µM; Systemic delivery by prodrugs compared with loxoribine [4]: substantially greater than loxoribine
7 | C=CCn1c(=O)n([C@@H]2O[C@H](CO)[C@@H](O)[C@H]2O)c2nc(N)[nH]c(=O)c21 [loxoribine, reference compound] | 322 | 136* μM | % F (intrinsic bioavailability of loxoribine) ([1]; loxoribine administered orally as loxoribine itself): 2%^b
8 | COC(=O)CCCn1c(=O)n([C@@H]2O[C@H](CO)[C@H](O)[C@H]2O)c2nc(N)[nH]c(=O)c21 [Compound 21, Methyl 4-(2-amino-9-((2R,3R,4R,5R)-3,4-dihydroxy-5-(hydroxymethyl)tetrahydrofuran-2-yl)-6,8-dioxo-1,6,8,9-tetrahydro-7H-purin-7-yl)butanoate] | 520 | >100* μM | –
9 | CCCn1c(=O)n([C@@H]2O[C@H](CO)[C@H](O)[C@H]2O)c2nc(N)[nH]c(=O)c21 [Compound 17, 2-Amino-9-((2R,3R,4R,5R)-3,4-dihydroxy-5-(hydroxymethyl)tetrahydrofuran-2-yl)-7-propyl-7,9-dihydro-1H-purine-6,8-dione] | 337 | 100* μM | –
10 | CCn1c(=O)n([C@@H]2O[C@H](CO)[C@H](O)[C@H]2O)c2nc(N)[nH]c(=O)c21 [Compound 16, 2-Amino-9-((2R,3R,4R,5R)-3,4-dihydroxy-5-(hydroxymethyl)tetrahydrofuran-2-yl)-7-ethyl-7,9-dihydro-1H-purine-6,8-dione] | 534 | >100* μM | –
11 | C#CCn1c(=O)n([C@@H]2O[C@H](CO)[C@H](F)[C@H]2O)c2nc(N)[nH]c(=O)c21 [Compound 28, 2-Amino-9-((2R,3S,4R,5R)-4-fluoro-3-hydroxy-5-(hydroxymethyl)tetrahydrofuran-2-yl)-7-(prop-2-yn-1-yl)-7,9-dihydro-1H-purine-6,8-dione] | 470 | less than or equal to 40 μM and 33 μM | individual MEC values [2]: < 100 µM
12 | Nc1nc2c(c(=O)[nH]1)n(Cc1ccc(C(F)(F)F)cc1)c(=O)n2[C@@H]1O[C@H](CO)C[C@H]1O [Compound 35, 2-Amino-9-((2R,3R,5S)-3-hydroxy-5-(hydroxymethyl)tetrahydrofuran-2-yl)-7-(4-(trifluoromethyl)benzyl)-7,9-dihydro-1H-purine-6,8-dione] | 1160 | 79* μM | –
13 | C/C=C/Cn1c(=O)n([C@@H]2O[C@H](CO)[C@H](O)[C@H]2O)c2nc(N)[nH]c(=O)c21 [Compound 7, 2-Amino-7-((E)-but-2-en-1-yl)-9-((2R,3R,4R,5R)-3,4-dihydroxy-5-(hydroxymethyl)tetrahydrofuran-2-yl)-7,9-dihydro-1H-purine-6,8-dione] | 535 | 63 µM | –
14 | Nc1nc2c(c(=O)[nH]1)n(CC1CC1)c(=O)n2[C@@H]1O[C@H](CO)[C@H](O)[C@H]1O [Compound 1, 2-Amino-7-(cyclopropylmethyl)-9-((2R,3R,4R,5R)-3,4-dihydroxy-5-(hydroxymethyl)tetrahydrofuran-2-yl)-7,9-dihydro-1H-purine-6,8-dione] | 188 | 66* μM | Systemic delivery by prodrugs compared with loxoribine [4]: substantially greater than loxoribine
